Assays:
[1] = biological target: T1, ATP-dependent translocase ABCB1 (Mus musculus, UniProt P21447); assay: TP_TRANSPORTER: increase in brain concentration in mdr1a(-/-) mouse; format: functional, organism-based; conditions: in vivo
[2] = biological target: T1, ATP-dependent translocase ABCB1; assay: TP_TRANSPORTER: increase in blood concentration in mdr1a(-/-) mouse; format: functional, organism-based; conditions: in vivo

T1 sequence (P21447 whole entry): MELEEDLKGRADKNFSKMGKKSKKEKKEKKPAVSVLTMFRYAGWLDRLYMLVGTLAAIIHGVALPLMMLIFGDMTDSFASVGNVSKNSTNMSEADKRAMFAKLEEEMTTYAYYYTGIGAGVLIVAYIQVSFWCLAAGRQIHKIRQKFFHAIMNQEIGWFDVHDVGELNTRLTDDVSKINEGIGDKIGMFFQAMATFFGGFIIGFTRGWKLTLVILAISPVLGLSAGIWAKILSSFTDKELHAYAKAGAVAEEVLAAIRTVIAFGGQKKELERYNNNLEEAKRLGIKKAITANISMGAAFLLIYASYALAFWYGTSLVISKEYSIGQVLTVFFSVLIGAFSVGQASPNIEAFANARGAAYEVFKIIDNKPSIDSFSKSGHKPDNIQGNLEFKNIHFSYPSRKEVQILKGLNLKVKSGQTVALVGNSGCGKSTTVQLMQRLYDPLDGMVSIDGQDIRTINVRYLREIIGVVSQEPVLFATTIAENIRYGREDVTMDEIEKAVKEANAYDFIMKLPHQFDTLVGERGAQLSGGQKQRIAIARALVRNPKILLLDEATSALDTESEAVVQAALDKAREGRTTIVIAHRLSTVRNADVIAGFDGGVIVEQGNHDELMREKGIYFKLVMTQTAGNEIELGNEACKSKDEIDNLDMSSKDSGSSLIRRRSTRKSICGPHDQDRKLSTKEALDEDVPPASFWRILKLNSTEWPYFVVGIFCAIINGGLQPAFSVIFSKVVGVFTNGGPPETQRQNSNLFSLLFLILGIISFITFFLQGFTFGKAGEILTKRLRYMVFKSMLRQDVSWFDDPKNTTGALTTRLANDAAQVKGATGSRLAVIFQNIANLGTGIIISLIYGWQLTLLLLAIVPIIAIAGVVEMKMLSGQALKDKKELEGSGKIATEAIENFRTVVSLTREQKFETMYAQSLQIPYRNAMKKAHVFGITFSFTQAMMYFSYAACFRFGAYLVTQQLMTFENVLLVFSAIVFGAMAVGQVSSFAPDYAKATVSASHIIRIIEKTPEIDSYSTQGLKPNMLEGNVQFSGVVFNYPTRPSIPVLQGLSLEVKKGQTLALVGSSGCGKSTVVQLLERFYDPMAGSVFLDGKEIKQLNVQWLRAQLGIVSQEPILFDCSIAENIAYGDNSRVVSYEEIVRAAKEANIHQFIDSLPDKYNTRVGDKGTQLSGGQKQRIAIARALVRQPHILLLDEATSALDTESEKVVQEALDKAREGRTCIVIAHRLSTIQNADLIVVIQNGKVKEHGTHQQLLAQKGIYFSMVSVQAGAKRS

SMILES: C=CC[C@@H]1/C=C(\C)C[C@H](C)C[C@H](OC)[C@H]2O[C@@](O)(C(=O)C(=O)N3CCCC[C@H]3C(=O)O[C@H](/C(C)=C/[C@@H]3CC[C@@H](O)[C@H](OC)C3)[C@H](C)[C@@H](O)CC1=O)[C@H](C)C[C@@H]2OC [TACROLIMUS ANHYDROUS]
- Activity [1]: substrate [+]
- Activity [2]: substrate [+]
